# Test results taken from patent publication US20230085307A1, “PYRIDAZINONE COMPOUND AND HERBICIDE” (NISSAN CHEMICAL CORPORATION, priority 2019, published 2023).
# Columns and labels:
# late watergrass = assay: Test Example 1: herbicidal activity, application before weed generation under submerged conditions (Table 16, symbol A); type: in vivo, late watergrass (Echinochloa oryzicola); conditions: amount of applied herbicide 320 g/ha
# How it was run: (§1)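 Alluvial soil was flooded to 4 cm depth, weed seeds were sown mixed and 2.5-leaf rice seedlings were transplanted. On sowing day, the compound's emulsion, diluted in water to a set dose, was applied to the water surface. Plants grew at 25–30 °C and were scored 0–5 after three weeks.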
# Japanese bulrush = assay: Test Example 1: herbicidal activity, application before weed generation under submerged conditions (Table 16, symbol B); type: in vivo, Japanese bulrush (Schoenoplectus juncoides); conditions: amount of applied herbicide 320 g/ha
# How it was run: as §1
# oval-leafed pondweed = assay: Test Example 1: herbicidal activity, application before weed generation under submerged conditions (Table 16, symbol C); type: in vivo, oval-leafed pondweed (Monochoria vaginalis); conditions: amount of applied herbicide 320 g/ha
# How it was run: as §1
# barnyard grass [1] = assay: Test Example 3: herbicidal effect by foliage application, Wagner pot (Table 18, symbol H); type: in vivo, barnyard grass (Echinochloa crus-galli); conditions: 320 g/ha
# How it was run: (§2)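 Plants were sown in alluvial soil held under 0.1–0.5 cm standing water and grown 14 days in a greenhouse at 25–30 °C. An emulsifiable formulation, water-diluted to the set dose, was then sprayed onto the foliage, and effects were scored three weeks later using previously defined criteria.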
# Chinese sprangletop = assay: Test Example 3: herbicidal effect by foliage application, Wagner pot (Table 18, symbol D); type: in vivo, chinese sprangletop (Leptochloa chinensis); conditions: 320 g/ha
# How it was run: as §2
# rice flat sedge = assay: Test Example 3: herbicidal effect by foliage application, Wagner pot (Table 18, symbol E); type: in vivo, rice flat sedge (Cyperus iria); conditions: 320 g/ha
# How it was run: as §2
# southern crabgrass [2] = assay: Test Example 4: herbicidal effect by soil treatment (Table 19, symbol F); type: in vivo, southern crabgrass (Digitaria ciliaris); conditions: amount of applied herbicide 320 g/ha
# How it was run: (§3)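 Step 1: sow seeds in sterilized diluvial soil, cover ~1.5 cm. Step 2: spray diluted emulsion onto soil surface at predetermined rate. Step 3: greenhouse, 25–30° C, three weeks. Step 4: grade effect on each plant by earlier criteria.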
# green foxtail [3] = assay: Test Example 4: herbicidal effect by soil treatment (Table 19, symbol G); type: in vivo, green foxtail (Setaria viridis); conditions: amount of applied herbicide 320 g/ha
# How it was run: as §3
# barnyard grass [4] = assay: Test Example 4: herbicidal effect by soil treatment (Table 19, symbol H); type: in vivo, barnyard grass (Echinochloa crus-galli); conditions: amount of applied herbicide 320 g/ha
# How it was run: as §3
# wild oat [5] = assay: Test Example 4: herbicidal effect by soil treatment (Table 19, symbol I); type: in vivo, wild oat (Avena fatua); conditions: amount of applied herbicide 320 g/ha
# How it was run: as §3
# blackgrass [6] = assay: Test Example 4: herbicidal effect by soil treatment (Table 19, symbol J); type: in vivo, blackgrass (Alopecurus myosuroides); conditions: amount of applied herbicide 320 g/ha
# How it was run: as §3
# Italian ryegrass [7] = assay: Test Example 4: herbicidal effect by soil treatment (Table 19, symbol K); type: in vivo, Italian ryegrass (Lolium multiflorum); conditions: amount of applied herbicide 320 g/ha
# How it was run: as §3
# windgrass [8] = assay: Test Example 4: herbicidal effect by soil treatment (Table 19, symbol L); type: in vivo, windgrass (Apera spica-venti); conditions: amount of applied herbicide 320 g/ha
# How it was run: as §3
# velvetleaf [9] = assay: Test Example 4: herbicidal effect by soil treatment (Table 19, symbol M); type: in vivo, velvetleaf (Abutilon theophrasti); conditions: amount of applied herbicide 320 g/ha
# How it was run: as §3
# redroot pigweed [10] = assay: Test Example 4: herbicidal effect by soil treatment (Table 19, symbol N); type: in vivo, redroot pigweed (Amaranthus retroflexus); conditions: amount of applied herbicide 320 g/ha
# How it was run: as §3
# lambsquarters [11] = assay: Test Example 4: herbicidal effect by soil treatment (Table 19, symbol O); type: in vivo, lambsquarters (Chenopodium album); conditions: amount of applied herbicide 320 g/ha
# How it was run: as §3
# chickweed [12] = assay: Test Example 4: herbicidal effect by soil treatment (Table 19, symbol P); type: in vivo, common chickweed (Stellaria media); conditions: amount of applied herbicide 320 g/ha
# How it was run: as §3
# false cleavers [13] = assay: Test Example 4: herbicidal effect by soil treatment (Table 19, symbol Q); type: in vivo, false cleavers (Galium spurium); conditions: amount of applied herbicide 320 g/ha
# How it was run: as §3
# persian speedwell [14] = assay: Test Example 4: herbicidal effect by soil treatment (Table 19, symbol R); type: in vivo, Persian speedwell (Veronica persica); conditions: amount of applied herbicide 320 g/ha
# How it was run: as §3
# southern crabgrass [15] = assay: Test Example 5: herbicidal effect by foliage application, plastic box (Table 20, symbol F); type: in vivo, southern crabgrass (Digitaria ciliaris); conditions: foliage application, 320 g/ha, three weeks after application
# How it was run: (§4)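 Foliar spray test: emulsion formulation diluted in water to a set application rate, sprayed onto 14-day-old plants raised in diluvial soil at 25° C to 30° C under glass. Both herbicidal effect and crop effect rated visually three weeks later.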
# green foxtail [16] = assay: Test Example 5: herbicidal effect by foliage application, plastic box (Table 20, symbol G); type: in vivo, green foxtail (Setaria viridis); conditions: foliage application, 320 g/ha, three weeks after application
# How it was run: as §4
# barnyard grass [17] = assay: Test Example 5: herbicidal effect by foliage application, plastic box (Table 20, symbol H); type: in vivo, barnyard grass (Echinochloa crus-galli); conditions: foliage application, 320 g/ha, three weeks after application
# How it was run: as §4
# wild oat [18] = assay: Test Example 5: herbicidal effect by foliage application, plastic box (Table 20, symbol I); type: in vivo, wild oat (Avena fatua); conditions: foliage application, 320 g/ha, three weeks after application
# How it was run: as §4
# blackgrass [19] = assay: Test Example 5: herbicidal effect by foliage application, plastic box (Table 20, symbol J); type: in vivo, blackgrass (Alopecurus myosuroides); conditions: foliage application, 320 g/ha, three weeks after application
# How it was run: as §4
# Italian ryegrass [20] = assay: Test Example 5: herbicidal effect by foliage application, plastic box (Table 20, symbol K); type: in vivo, Italian ryegrass (Lolium multiflorum); conditions: foliage application, 320 g/ha, three weeks after application
# How it was run: as §4
# windgrass [21] = assay: Test Example 5: herbicidal effect by foliage application, plastic box (Table 20, symbol L); type: in vivo, windgrass (Apera spica-venti); conditions: foliage application, 320 g/ha, three weeks after application
# How it was run: as §4
# velvetleaf [22] = assay: Test Example 5: herbicidal effect by foliage application, plastic box (Table 20, symbol M); type: in vivo, velvetleaf (Abutilon theophrasti); conditions: foliage application, 320 g/ha, three weeks after application
# How it was run: as §4
# redroot pigweed [23] = assay: Test Example 5: herbicidal effect by foliage application, plastic box (Table 20, symbol N); type: in vivo, redroot pigweed (Amaranthus retroflexus); conditions: foliage application, 320 g/ha, three weeks after application
# How it was run: as §4
# lambsquarters [24] = assay: Test Example 5: herbicidal effect by foliage application, plastic box (Table 20, symbol O); type: in vivo, lambsquarters (Chenopodium album); conditions: foliage application, 320 g/ha, three weeks after application
# How it was run: as §4
# chickweed [25] = assay: Test Example 5: herbicidal effect by foliage application, plastic box (Table 20, symbol P); type: in vivo, common chickweed (Stellaria media); conditions: foliage application, 320 g/ha, three weeks after application
# How it was run: as §4
# false cleavers [26] = assay: Test Example 5: herbicidal effect by foliage application, plastic box (Table 20, symbol Q); type: in vivo, false cleavers (Galium spurium); conditions: foliage application, 320 g/ha, three weeks after application
# How it was run: as §4
# persian speedwell [27] = assay: Test Example 5: herbicidal effect by foliage application, plastic box (Table 20, symbol R); type: in vivo, Persian speedwell (Veronica persica); conditions: foliage application, 320 g/ha, three weeks after application
# How it was run: as §4
smiles,measurement,setting,value
CCn1nc(C)c(O)c(-c2c(-c3ccccc3OC)sc3cc(OC)ccc23)c1=O [3-084],"Herbicidal effect, A: late watergrass",late watergrass,0 (Herbicidal rate of 5% or less (almost no effect))
same,"Herbicidal effect, B: Japanese bulrush",Japanese bulrush,3 (Herbicidal rate of 40% or more and less than 70%)
same,"Herbicidal effect, C: oval-leafed pondweed",oval-leafed pondweed,1 (Herbicidal rate of 5% or more and less than 20%)
same,herbicidal effect on barnyard grass (H),barnyard grass [1],5 (Herbicidal rate of 90% or more (almost completely withered))
same,herbicidal effect on Chinese sprangletop (D),Chinese sprangletop,0 (Herbicidal rate of 5% or less (almost no effect))
same,herbicidal effect on rice flat sedge (E),rice flat sedge,3 (Herbicidal rate of 40% or more and less than 70%)
same,"F: southern crabgrass, herbicidal effect grade",southern crabgrass [2],0 (Herbicidal rate of 5% or less (almost no effect))
same,"G: green foxtail, herbicidal effect grade",green foxtail [3],0 (Herbicidal rate of 5% or less (almost no effect))
same,"H: barnyard grass, herbicidal effect grade",barnyard grass [4],0 (Herbicidal rate of 5% or less (almost no effect))
same,"I: wild oat, herbicidal effect grade",wild oat [5],2 (Herbicidal rate of 20% or more and less than 40%)
same,"J: blackgrass, herbicidal effect grade",blackgrass [6],0 (Herbicidal rate of 5% or less (almost no effect))
same,"K: Italian ryegrass, herbicidal effect grade",Italian ryegrass [7],1 (Herbicidal rate of 5% or more and less than 20%)
same,"L: windgrass, herbicidal effect grade",windgrass [8],0 (Herbicidal rate of 5% or less (almost no effect))
same,"M: velvetleaf, herbicidal effect grade",velvetleaf [9],0 (Herbicidal rate of 5% or less (almost no effect))
same,"N: redroot pigweed, herbicidal effect grade",redroot pigweed [10],4 (Herbicidal rate of 70% or more and less than 90%)
same,"O: lambsquarters, herbicidal effect grade",lambsquarters [11],2 (Herbicidal rate of 20% or more and less than 40%)
same,"P: chickweed, herbicidal effect grade",chickweed [12],4 (Herbicidal rate of 70% or more and less than 90%)
same,"Q: false cleavers, herbicidal effect grade",false cleavers [13],3 (Herbicidal rate of 40% or more and less than 70%)
same,"R: persian speedwell, herbicidal effect grade",persian speedwell [14],4 (Herbicidal rate of 70% or more and less than 90%)
same,"F: southern crabgrass, herbicidal effect grade",southern crabgrass [15],3 (Herbicidal rate of 40% or more and less than 70%)
same,"G: green foxtail, herbicidal effect grade",green foxtail [16],3 (Herbicidal rate of 40% or more and less than 70%)
same,"H: barnyard grass, herbicidal effect grade",barnyard grass [17],3 (Herbicidal rate of 40% or more and less than 70%)
same,"I: wild oat, herbicidal effect grade",wild oat [18],3 (Herbicidal rate of 40% or more and less than 70%)
same,"J: blackgrass, herbicidal effect grade",blackgrass [19],4 (Herbicidal rate of 70% or more and less than 90%)
same,"K: Italian ryegrass, herbicidal effect grade",Italian ryegrass [20],1 (Herbicidal rate of 5% or more and less than 20%)
same,"L: windgrass, herbicidal effect grade",windgrass [21],3 (Herbicidal rate of 40% or more and less than 70%)
same,"M: velvetleaf, herbicidal effect grade",velvetleaf [22],4 (Herbicidal rate of 70% or more and less than 90%)
same,"N: redroot pigweed, herbicidal effect grade",redroot pigweed [23],5 (Herbicidal rate of 90% or more (almost completely withered))
same,"O: lambsquarters, herbicidal effect grade",lambsquarters [24],3 (Herbicidal rate of 40% or more and less than 70%)
same,"P: chickweed, herbicidal effect grade",chickweed [25],5 (Herbicidal rate of 90% or more (almost completely withered))
same,"Q: false cleavers, herbicidal effect grade",false cleavers [26],5 (Herbicidal rate of 90% or more (almost completely withered))
same,"R: persian speedwell, herbicidal effect grade",persian speedwell [27],5 (Herbicidal rate of 90% or more (almost completely withered))
